In patent US7414068B2, “Benzopyran derivatives substituted with secondary amines including tetrazole, method for the preparation thereof and pharmaceutical compositions containing them” (Dongbu Hannong Chemical Co., Ltd., priority 2002, dated 2008):

Tests used:
cortical neuron cells = assay: Protective effect on iron-induced neuronal cell injury (LDH release); format: cell-based; settings: FeSO4 50 μM; for protective effect on neuron cell: Inhibition (%, 30 μM compound addition): LDH reduction vs control; for IC50: LDH
Experimental: From the brains of 17˜18 day-old embryos, cortical neuron cells were isolated and then, cultured at 37° C. for 7˜9 days in a 5% CO2 incubator. The said cortical cell cultures were washed twice with MEM (Minimum essential medium) to reduce the serum level to 0.2%. […] Then, the compound of the said concentration was pre-treated for 30 min, respectively. For the experiment, test compound was dissolved in DMSO and diluted in a medium. At this time, the final concentration of DMSO was not allowed to exceed 0.1%. For control group, only vehicle was applied.
After the said pre-treatment, FeSO4 was added to the medium for a final concentration to be 50 μM. The medium was cultured in CO2 incubator for 24 hours. During the incubation, lactate dehydrogenase (LDH) was released by iron. The serum level of lactate dehydrogenase released into the medium was measured to assess necrosis of neuronal cell by the oxidative toxicity of iron. The protective effect on neuron cells of the test compounds was evaluated by calculating the LDH reduction rate of treatment-group compared with that of the control group.

[1] = Acute oral toxicity test in rats; settings: SD, rat, in vivo, single oral dose, suspended in 0.5% methyl cellulose, read-out: lethal dose (LD50) for oral administration
Experimental: In this test, six-week old SPF SD rats were used with two rats assigned to each group. Each group was consisted of two rats. The compounds prepared in example 1, 7, 11, 17, 22, 24, 26, 28, 30, 32, 34, 42, 52, 54, 55, 56, 57, 59, 60, 61, 70, 75, 77, 79, 81, 83, 85, and 89 were suspended in 0.5% methyl cellulose, respectively. […] Also, hematological test and biochemical analysis were accomplished. After sacrificing the animals, autopsy was performed for macroscopic observations of the organs and tissues. As a result, there was no significant changes in clinical symptoms, body weight and mortalities. Also in hematology, serum chemistry parameters, macroscopic observation and drug-related changes were not observed.

isolated rat aorta = assay: Vasodilating effect on blood vessel excised from rats (methoxamine-constricted aorta); settings: isolated rat aorta constricted with methoxamine (3 μM); read-out: Concentration for inhibition of constriction induced by methoxamine in rat arota (IC50)
Text: Rats (350˜450 g, obtained from the Experimental Animal Team of the Korea Research Institute of Chemical Technology) were knocked to be unconscious by hitting the occipital region, sacrificed by cervical dislocation, and underwent thoracotomy. After being quickly removed, the thoracic aorta was deprived of the adipose tissue and cut into aortic rings of 3 mm width. The aorta was lightly rubbed with cotton club soaked in a modified Krebs Henseleit buffer (Physiological salt solution) to remove the inner epithelial layer therefrom. While being hung in an organ bath containing a physiological buffer, the vascular smooth muscle was allowed to equilibrate under a resting tension of 2 g and then, stand for 1 hour at 37° C. for stabilization, supplying a carbogen consisting of 95% O2˜5% CO2.
Thereafter, the vascular smooth muscle was constricted with 10^−5M phenylephrine and washed several times with physiological saline solution. The said procedure was repeated again to ensure the stable reactivity of vascular smooth muscle to repetitive constriction/relaxation.
Thereafter, 3×10^−6 M methoxamine was applied to induce an intensive constriction in the vascular smooth muscle. When the vasoconstriction induced by the methoxamine was reached and maintained to a maximum, test compounds and control material was cumulatively added to the organ bath in concentration of 1, 3, 10 and 30 μM, respectively, to examine the vasodilating effect. Cromakalim, BMS-180448 (the compound of formula 4) and BMS-191095 (the compound of formula 5), known to be the first generation KATP opener with potent vasodilating effect were used as control materials.
The change rate of constriction by the addition of the drugs compared to the maximal constriction induced by methoxamine was calculated to plot a concentration-relaxation response curve. Through a least linear regression analysis, IC50 that the drug concentration at which the vascular tissue is relaxed to 50% extent of the maximal constriction, was obtained for each drug.

Row | SMILES | protective effect on neuron cell: Inhibition (%, 30 μM compound addition) (cortical neuron cells; 24 hours) [%] | IC50 (cortical neuron cells; Cortical neurone, 24 h) [µM] | IC50 (cortical neuron cells; 24 hours) [µM] | LD50 [1] [mg/kg] | IC50 (isolated rat aorta) [µM]
1 | COC(OC)[C@]1(C)Oc2ccc(N)cc2[C@@H](N(Cc2nnn(C)n2)c2ccc(OC(F)(F)F)cc2)[C@@H]1O [Example 85, (2R,3S,4R)-6-amino-4-[N-(4-trifluoromethoxyphenyl)-N-(2-methyl-2H-tetrazol-5ylmethyl)amino]-3-hydroxy-2-methyl-2-dimethoxymethyl-3,4-dihydro-2H-1-benzopyran] | 119 | < 2 | 1.8 | > 2000 | > 30
2 | COC(OC)[C@@]1(C)Oc2ccc([N+](=O)[O-])cc2[C@H](N(Cc2nnn(C)n2)c2cccc(Cl)c2)[C@H]1O [Example 25, (2S,3R,4S)-6-nitro-4-[N-(3-chlorophenyl)-N-(2-methyl-2H-tetrazol-5-ylmethyl)amino]-3-hydroxy-2-methyl-2-dimethoxymethyl-3,4-dihydro-2H-1-benzopyran] | 83 | – | – | – | 27.4
3 | COC(OC)[C@@]1(C)Oc2ccc(N)cc2[C@@H](N(Cc2nnn(C)n2)c2ccc(C(F)(F)F)cc2)[C@@H]1O [Example 75, (2S,3S,4R)-6-amino-4-[N-(4-trifluoromethylphenyl)-N-(2-methyl-2H-tetrazol-5-ylmethyl)amino]-3-hydroxy-2-methyl-2-dimethoxymethyl-3,4-dihydro-2H-1-benzopyran] | 125 | < 2 | 1.8 | > 2000 | > 30
4 | COC(OC)[C@@]1(C)Oc2ccc(N)cc2[C@H](N(Cc2nnn(C)n2)c2cccc(Cl)c2)[C@H]1O [Example 26, (2S,3R,4S)-6-amino-4-[N-(3-chlorophenyl)-N-(2-methyl-2H-tetrazol-5-ylmethyl)amino]-3-hydroxy-2-methyl-2-dimethoxymethyl-3,4-dihydro-2H-1-benzopyran] | 97 | 2.2 | – | > 2000 | 24.6
5 | COC(OC)[C@@]1(C)Oc2ccc([N+](=O)[O-])cc2[C@@H](N(Cc2ccccc2)Cc2nnn(C)n2)[C@@H]1O [Example 7, (2S,3S,4R)-6-nitro-4-[N-benzyl-N-(2-methyl-2H-tetrazol-5-ylmethyl)amino]-3-hydroxy-2-methyl-2-dimethoxymethyl-3,4-dihydro-2H-1-benzopyran] | 59 | 34.1 | – | > 2000 | 5.59
6 | COC(OC)[C@]1(C)Oc2ccc(N)cc2[C@H](N(Cc2nnn(C)n2)c2ccc(OC(F)(F)F)cc2)[C@H]1O [Example 83, (2R,3R,4S)-6-amino-4-[N-(4-trifluoromethoxyphenyl)-N-(2-methyl-2H-tetrazol-5-ylmethyl)amino]-3-hydroxy-2-methyl-2-dimethoxymethyl-3,4-dihydro-2H-1-benzopyran] | 80 | 3.7 | – | > 2000 | > 30
7 | COC(OC)[C@@]1(C)Oc2ccc(N)cc2[C@@H](N(Cc2nnn(C)n2)c2cccc(Cl)c2)[C@@H]1O [Example 22, (2S,3S,4R)-6-amino-4-[N-(3-chlorophenyl)-N-(2-methyl-2H-tetrazol-5-ylmethyl)amino]-3-hydroxy-2-methyl-2-dimethoxymethyl-3,4-dihydro-2H-1-benzopyran] | 97 | 5.9 | – | > 2000 | > 30
8 | COC(OC)[C@@]1(C)Oc2ccc(N)cc2[C@@H](N(Cc2nnn(C)n2)c2ccc(C)cc2)[C@@H]1O [Example 24] | 98 | – | 6.1 | – | > 30
